Measurements reported in US20070065803A1, “Patterns for a skeletal system” (CENTRE NATIONAL DE LA RECHERCHE SCIENTIFIQUE, priority 2003, published 2007).

System: osteoclasts derived from RAW-GFP deposited onto a layer of MC3T3-type osteoblast cells
Assay: Crossing of the osteoblast layer by osteoclasts in the bone system model (confocal microscopy)
Assay type: cell-based, murine
Details: PP2 at 10 μM; untreated osteoclasts cross the layer after 1 hour to 1 hour 30 min; FIG. 4
Experimental: FIG. 4, images obtained by confocal microscopy 3D analysis, showing the organization of the two cell types according to the section along Z, in order to determine the effects of PP2 (FIG. 4B) in comparison with the control trial (FIG. 4A).
Cells of the murine osteoblast line MC 3T3 are placed in culture in α-MEM medium supplemented with 10% by volume of fetal calf serum, 10^−8M dexamethasone and 0.028 mM ascorbic acid. The cells are then detached and seeded at confluence onto the mineralized support.
The osteoclasts derived from human or murine primary cultures or from lines (for example, the RAW line or the human line GCT23) are obtained after 7 days of differentiation as described in Destaing et al. (Mol Biol Cell, Podosomes display actin turnover and dynamic self-organization in osteoclasts expressing actin-green fluorescent protein, 14(2):407-16, 2003). The osteoclast precursors are cultured in the presence of α-MEM medium supplemented with 10% by volume of fetal calf serum and of two recombinant cytokines: M-CSF and RANK-L ([…]). The cells are placed at 37° C. and 5% of CO2 and the medium is changed every two days for 7-8 days. The differentiated osteoclasts are detached with a solution of EDTA at 0.25 mM diluted in 1×PBS. The osteoclasts are seeded at a density of 10 cells/mm^2.
An inhibitor of the Src tyrosine kinase, PP2, was tested in the model according to the invention. […]

Question: Which “crossing (invasion) of the osteoblast cell layer by the osteoclasts” value does the source give for `CC(C)(C)n1nc(-c2ccc(Cl)cc2)c2c(N)ncnc21` [PP2] here?
Answer: the osteoclasts no longer cross the osteoblast cell layer
